Assay results as given in patent US20260356819A1, “OXOISOINDOLINYL-SUBSTITUTED […] DERIVATIVE AND USE THEREOF” (GLUETACS THERAPEUTICS (SHANGHAI) CO., LTD., priority 2023, published 2026).

Assays:
IKZF3 = biological target: T1, IKZF3 (Homo sapiens, UniProt Q96SW2+Q9UKT9); experiment: Western blot degradation of IKZF3 in hPBMCs (24 h); type: cell-based; conditions: compounds at 50 nM and 500 nM
T1 construct: The supernatant was aspirated as the extracted total cell protein; endogenous in cells; host or cells: human peripheral blood mononuclear cells (hPBMCs)
T1 sequence (Q9UKT9 whole entry): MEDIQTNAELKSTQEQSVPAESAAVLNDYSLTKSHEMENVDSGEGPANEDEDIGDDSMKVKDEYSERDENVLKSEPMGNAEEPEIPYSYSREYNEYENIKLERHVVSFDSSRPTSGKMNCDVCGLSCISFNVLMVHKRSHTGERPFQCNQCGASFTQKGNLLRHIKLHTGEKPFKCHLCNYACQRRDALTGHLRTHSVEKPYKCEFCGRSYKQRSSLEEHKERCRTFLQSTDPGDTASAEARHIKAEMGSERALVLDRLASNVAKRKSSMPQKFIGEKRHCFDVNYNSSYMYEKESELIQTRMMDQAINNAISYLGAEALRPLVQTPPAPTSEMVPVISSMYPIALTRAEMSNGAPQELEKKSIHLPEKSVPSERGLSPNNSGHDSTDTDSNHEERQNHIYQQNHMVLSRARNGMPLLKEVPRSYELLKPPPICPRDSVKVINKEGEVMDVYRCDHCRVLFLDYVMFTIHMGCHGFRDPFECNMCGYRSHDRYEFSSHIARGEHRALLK
T1 sequence (Q96SW2 whole entry): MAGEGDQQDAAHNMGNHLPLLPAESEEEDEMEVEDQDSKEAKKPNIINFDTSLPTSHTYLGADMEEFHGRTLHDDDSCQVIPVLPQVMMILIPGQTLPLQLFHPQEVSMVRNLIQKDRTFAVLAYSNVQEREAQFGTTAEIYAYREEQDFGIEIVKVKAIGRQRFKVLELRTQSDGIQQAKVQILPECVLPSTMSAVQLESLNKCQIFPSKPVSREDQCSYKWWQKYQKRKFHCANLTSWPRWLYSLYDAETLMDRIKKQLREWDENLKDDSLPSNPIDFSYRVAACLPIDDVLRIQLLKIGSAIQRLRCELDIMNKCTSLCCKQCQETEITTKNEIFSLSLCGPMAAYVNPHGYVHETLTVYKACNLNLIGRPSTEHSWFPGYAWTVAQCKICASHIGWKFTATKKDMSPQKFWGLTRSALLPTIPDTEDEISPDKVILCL
T1 sequence (Q16531 whole entry partner): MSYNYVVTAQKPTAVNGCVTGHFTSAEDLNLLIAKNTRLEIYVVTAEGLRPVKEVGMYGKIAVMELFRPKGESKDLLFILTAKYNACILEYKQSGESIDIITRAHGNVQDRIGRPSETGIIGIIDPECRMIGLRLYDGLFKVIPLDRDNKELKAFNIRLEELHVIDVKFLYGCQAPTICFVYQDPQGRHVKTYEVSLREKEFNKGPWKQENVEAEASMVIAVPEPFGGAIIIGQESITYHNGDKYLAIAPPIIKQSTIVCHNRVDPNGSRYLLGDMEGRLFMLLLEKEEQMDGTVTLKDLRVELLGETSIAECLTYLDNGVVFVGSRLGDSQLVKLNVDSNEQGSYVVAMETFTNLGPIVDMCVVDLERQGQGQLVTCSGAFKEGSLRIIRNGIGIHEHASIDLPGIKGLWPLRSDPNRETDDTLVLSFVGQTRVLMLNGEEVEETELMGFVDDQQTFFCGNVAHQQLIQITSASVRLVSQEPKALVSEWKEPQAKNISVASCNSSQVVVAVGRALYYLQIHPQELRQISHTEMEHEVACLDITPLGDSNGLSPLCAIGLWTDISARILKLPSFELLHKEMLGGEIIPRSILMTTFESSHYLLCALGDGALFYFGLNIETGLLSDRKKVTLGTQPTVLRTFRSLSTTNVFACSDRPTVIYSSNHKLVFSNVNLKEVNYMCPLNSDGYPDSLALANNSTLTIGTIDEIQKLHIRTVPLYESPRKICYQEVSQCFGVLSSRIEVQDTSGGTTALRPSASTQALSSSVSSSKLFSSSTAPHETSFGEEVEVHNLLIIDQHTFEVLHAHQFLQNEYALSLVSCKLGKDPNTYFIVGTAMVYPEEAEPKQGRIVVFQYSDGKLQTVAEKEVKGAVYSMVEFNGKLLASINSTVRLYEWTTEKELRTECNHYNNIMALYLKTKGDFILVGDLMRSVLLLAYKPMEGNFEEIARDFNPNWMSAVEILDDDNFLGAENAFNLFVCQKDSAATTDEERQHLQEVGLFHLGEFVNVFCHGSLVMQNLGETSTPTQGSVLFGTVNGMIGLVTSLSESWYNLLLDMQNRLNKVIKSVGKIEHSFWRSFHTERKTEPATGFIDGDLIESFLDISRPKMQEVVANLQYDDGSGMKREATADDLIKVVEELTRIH
Outline: (§1)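 Degradation in primary human PBMCs after 24 h compound exposure at 50 and 500 nM. Western blot band intensities, normalised to an internal control protein, expressed as % protein remaining relative to DMSO.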

WEE1 = biological target: T2, WEE1 (Homo sapiens, UniProt P30291+Q96SW2); experiment: Western blot degradation of WEE1 in hPBMCs (24 h); type: cell-based; conditions: compounds at 50 nM and 500 nM
T2 construct: The supernatant was aspirated as the extracted total cell protein; endogenous in cells; host or cells: human peripheral blood mononuclear cells (hPBMCs)
T2 sequence (P30291 whole entry): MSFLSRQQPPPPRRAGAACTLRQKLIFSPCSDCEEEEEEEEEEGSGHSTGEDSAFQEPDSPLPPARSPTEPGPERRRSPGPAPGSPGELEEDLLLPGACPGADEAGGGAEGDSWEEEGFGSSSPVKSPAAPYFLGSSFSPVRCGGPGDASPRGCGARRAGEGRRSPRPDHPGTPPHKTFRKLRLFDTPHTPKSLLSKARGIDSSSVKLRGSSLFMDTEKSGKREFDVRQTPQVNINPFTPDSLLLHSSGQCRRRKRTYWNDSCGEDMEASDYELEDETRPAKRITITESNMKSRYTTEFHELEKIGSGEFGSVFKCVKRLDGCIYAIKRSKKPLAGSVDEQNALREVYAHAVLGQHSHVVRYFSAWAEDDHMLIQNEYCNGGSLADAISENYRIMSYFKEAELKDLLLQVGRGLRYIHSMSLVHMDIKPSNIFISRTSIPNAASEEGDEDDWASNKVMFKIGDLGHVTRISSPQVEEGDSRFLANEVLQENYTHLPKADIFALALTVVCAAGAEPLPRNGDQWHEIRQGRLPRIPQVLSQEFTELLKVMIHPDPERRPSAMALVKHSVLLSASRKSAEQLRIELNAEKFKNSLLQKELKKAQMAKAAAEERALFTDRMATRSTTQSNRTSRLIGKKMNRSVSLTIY
T2 sequence (Q96SW2 whole entry): as the sequence (Q96SW2 whole entry) above
T2 sequence (Q16531 whole entry partner): as the sequence (Q16531 whole entry partner) above
Outline: as §1

CK1α = biological target: T3, CK1α (Homo sapiens, UniProt P48729+Q96SW2); experiment: Western blot degradation of CK1α in hPBMCs (24 h); type: cell-based; conditions: compounds at 50 nM and 500 nM
T3 construct: The supernatant was aspirated as the extracted total cell protein; endogenous in cells; host or cells: human peripheral blood mononuclear cells (hPBMCs)
T3 sequence (P48729 whole entry): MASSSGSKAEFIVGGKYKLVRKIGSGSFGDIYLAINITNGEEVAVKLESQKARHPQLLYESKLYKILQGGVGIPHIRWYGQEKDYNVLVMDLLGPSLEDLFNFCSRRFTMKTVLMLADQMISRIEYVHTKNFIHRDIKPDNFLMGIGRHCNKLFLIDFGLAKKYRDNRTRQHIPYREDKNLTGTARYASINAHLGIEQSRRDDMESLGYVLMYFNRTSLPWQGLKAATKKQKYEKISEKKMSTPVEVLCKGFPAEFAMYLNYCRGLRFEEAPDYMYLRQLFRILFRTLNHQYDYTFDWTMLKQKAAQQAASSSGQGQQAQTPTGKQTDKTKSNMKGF
T3 sequence (Q96SW2 whole entry): as the sequence (Q96SW2 whole entry) above
T3 sequence (Q16531 whole entry partner): as the sequence (Q16531 whole entry partner) above
Outline: as §1

MM.1S cells = experiment: Inhibition of proliferation of multiple myeloma cells MM.1S (cell viability assay, 96 h); type: cell-based, human; conditions: read-out: inhibitory activity (IC50) against tumor cells proliferation, MM.1S
Protocol: (§2) The tumor cells used herein were cultured in a cell culture medium listed in table 2 at 37 °C in an incubator with 5% CO2. Prior to experimentation, all cell lines used were correctly identified by STR profiling, and tested negative for Mycoplasma contamination using a Mycoplasma detection kit through routine screenings.
(§3) The IC50 values of the compounds of the present disclosure (including the compounds in Table 1, and Examples 1-498) were determined using the CellTiter-Meiluncell Luminescent Cell Viability Assay Kit from Dalian Meilun Biotech Co., Ltd. The detailed procedure is as follows: Tumor cells were seeded in 96-well cell culture plates at the densities specified in Table 3. On the following day, the test compounds of the present disclosure were subjected to serial dilution. […] Subsequently, 0.5 μL of the test compound dilution was transferred into the 96-well plate containing the cells, with each well containing 100 μL of cell culture medium. […] Into the 96-well plate, the diluted test compounds and corresponding detection reagents were added, resulting in final test compound concentrations of 500 nM and 10 nM, respectively. The experimental procedure is described below using the diluted 2 μM test compound as an example.
(§4) 0.5 μL of the aforementioned diluted compound of the present disclosure (including the compounds in Table 1, and Examples 1-498) was added to the seeded cells in 100 μL of medium, yielding a final test compound concentration of 10 nM. After the cells were treated with the compounds of the present disclosure for a specified period, the cell viability assay reagent was added to the culture medium according to the kit's instructions to determine cell viability. […] All controls were treated using the same procedure as the compounds of the present disclosure. The growth inhibition curves for the compounds of the present disclosure were plotted using Prism GraphPad software, and the IC50 values were calculated therefrom.

IKZF1 = biological target: T4, IKZF1 (Homo sapiens, UniProt Q13422+Q96SW2); experiment: Western blot degradation of IKZF1 in hPBMCs (24 h); type: cell-based; conditions: compounds at 50 nM and 500 nM
T4 construct: The supernatant was aspirated as the extracted total cell protein; endogenous in cells; host or cells: human peripheral blood mononuclear cells (hPBMCs)
T4 sequence (Q13422 whole entry): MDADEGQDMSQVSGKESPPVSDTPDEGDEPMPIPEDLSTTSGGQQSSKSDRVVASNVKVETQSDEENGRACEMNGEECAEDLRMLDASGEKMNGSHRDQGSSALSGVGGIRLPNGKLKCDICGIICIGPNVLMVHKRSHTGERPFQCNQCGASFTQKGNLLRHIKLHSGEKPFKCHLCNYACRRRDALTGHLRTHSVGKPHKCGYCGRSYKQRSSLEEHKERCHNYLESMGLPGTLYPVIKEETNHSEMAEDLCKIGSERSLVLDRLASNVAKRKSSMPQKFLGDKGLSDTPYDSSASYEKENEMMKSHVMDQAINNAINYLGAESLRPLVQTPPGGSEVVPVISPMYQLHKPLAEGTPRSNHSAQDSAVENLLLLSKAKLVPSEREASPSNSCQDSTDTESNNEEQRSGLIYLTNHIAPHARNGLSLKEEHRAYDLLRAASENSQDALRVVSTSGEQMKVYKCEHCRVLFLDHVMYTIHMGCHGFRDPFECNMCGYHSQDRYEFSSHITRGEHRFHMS
T4 sequence (Q96SW2 whole entry): as the sequence (Q96SW2 whole entry) above
T4 sequence (Q16531 whole entry partner): as the sequence (Q16531 whole entry partner) above
Outline: as §1

IKZF2 = biological target: T5, IKZF2 (Homo sapiens, UniProt Q96SW2+Q9UKS7); experiment: Western blot degradation of IKZF2 in hPBMCs (24 h); type: cell-based; conditions: compounds at 50 nM and 500 nM
T5 construct: The supernatant was aspirated as the extracted total cell protein; endogenous in cells; host or cells: human peripheral blood mononuclear cells (hPBMCs)
T5 sequence (Q9UKS7 whole entry): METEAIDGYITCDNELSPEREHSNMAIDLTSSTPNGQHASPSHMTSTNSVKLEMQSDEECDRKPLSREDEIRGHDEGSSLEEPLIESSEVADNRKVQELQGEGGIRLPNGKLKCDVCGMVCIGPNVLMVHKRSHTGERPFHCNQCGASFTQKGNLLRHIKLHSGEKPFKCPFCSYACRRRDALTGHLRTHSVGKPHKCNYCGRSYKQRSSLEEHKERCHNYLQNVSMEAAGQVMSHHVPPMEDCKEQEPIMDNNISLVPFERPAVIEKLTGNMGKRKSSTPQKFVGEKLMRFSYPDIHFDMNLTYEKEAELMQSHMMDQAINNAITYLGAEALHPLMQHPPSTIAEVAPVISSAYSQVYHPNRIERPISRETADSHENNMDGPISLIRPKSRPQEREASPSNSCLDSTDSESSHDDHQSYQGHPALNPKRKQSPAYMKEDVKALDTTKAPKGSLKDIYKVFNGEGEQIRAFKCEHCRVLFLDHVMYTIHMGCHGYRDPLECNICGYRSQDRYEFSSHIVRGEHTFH
T5 sequence (Q96SW2 whole entry): as the sequence (Q96SW2 whole entry) above
T5 sequence (Q16531 whole entry partner): as the sequence (Q16531 whole entry partner) above
Outline: as §1

GSPT1 = biological target: T6, GSPT1 (Homo sapiens, UniProt P15170+Q96SW2); experiment: Western blot degradation of GSPT1 in hPBMCs (24 h); type: cell-based; conditions: compounds at 50 nM and 500 nM
T6 construct: The supernatant was aspirated as the extracted total cell protein; endogenous in cells; host or cells: human peripheral blood mononuclear cells (hPBMCs)
Outline: as §1

Jurkat cells = experiment: Inhibition of proliferation of T lymphocytic leukemia cells Jurkat (cell viability assay, 96 h); type: cell-based, human; conditions: read-out: inhibitory activity (IC50) against tumor cells proliferation, Jurkat
Protocol: as §2, §3, §4

| Structure (SMILES) | IKZF3 substrate protein remaining % (IKZF3) | WEE1 substrate protein remaining % (WEE1) | CK1α substrate protein remaining % (CK1α) | IC50 (MM.1S cells) | IKZF1 substrate protein remaining % (IKZF1) | IKZF2 substrate protein remaining % (IKZF2) | GSPT1 substrate protein remaining % (GSPT1) | IC50 (Jurkat cells) |
| --- | --- | --- | --- | --- | --- | --- | --- | --- |
| O=C1CCN(N2Cc3cc(CN4CC=C(c5ccco5)CC4)ccc3C2=O)C(=O)N1 [GT-04874, 1-(5-((4-(furan-2-yl)-3,6-dihydropyridin-1(2H)-yl)methyl)-1-oxoisoindolin-2-yl)dihydropyrimidine-2,4(1H,3H)-dione] | A (0% ≤ substrate protein remaining % ≤80%) | A (0% ≤ substrate protein remaining % ≤80%) | B (80%< substrate protein remaining % ≤100%) | 100 to 300 nM | A (0% ≤ substrate protein remaining % ≤80%) | B (80%< substrate protein remaining % ≤100%) | A (0% ≤ substrate protein remaining % ≤80%) | 500 to 1000 nM |
| O=C1CCN(N2C(=O)c3ccc(CN4CCN(c5ncc(C(F)(F)F)cc5Cl)CC4)cc3C2=O)C(=O)N1 [GT-07026, 5-((4-(3-chloro-5-(trifluoromethyl)pyridin-2-yl)piperazin-1-yl)methyl)-2-(2,4-dioxotetrahydropyrimidin-1(2H)-yl)isoindoline-1,3-dione] | B (80%< substrate protein remaining % ≤100%) | A (0% ≤ substrate protein remaining % ≤80%) | B (80%< substrate protein remaining % ≤100%) | – | B (80%< substrate protein remaining % ≤100%) | B (80%< substrate protein remaining % ≤100%) | A (0% ≤ substrate protein remaining % ≤80%) | 500 to 1000 nM |
| O=C1CCN(N2Cc3cc(CN4CCN(C(c5cccc(F)c5)c5cccc(F)c5)CC4)ccc3C2=O)C(=O)N1 [GT-07293, 1-(5-((4-(bis(3-fluorophenyl)methyl)piperazin-1-yl)methyl)-1-oxoisoindolin-2-yl)dihydropyrimidine-2,4(1H,3H)-dione] | A (0% ≤ substrate protein remaining % ≤80%) | A (0% ≤ substrate protein remaining % ≤80%) | B (80%< substrate protein remaining % ≤100%) | 100 to 300 nM | B (80%< substrate protein remaining % ≤100%) | A (0% ≤ substrate protein remaining % ≤80%) | A (0% ≤ substrate protein remaining % ≤80%) | 100 to 300 nM |
| O=C1CCN(N2Cc3cc(CN4CCC(c5ccsc5)CC4)ccc3C2=O)C(=O)N1 [GT-07371, 1-(1-oxo-5-((4-(thiophen-3-yl)piperidin-1-yl)methyl)isoindolin-2-yl)dihydropyrimidine-2,4(1H,3H)-dione] | A (0% ≤ substrate protein remaining % ≤80%) | B (80%< substrate protein remaining % ≤100%) | B (80%< substrate protein remaining % ≤100%) | 500 to 1000 nM | B (80%< substrate protein remaining % ≤100%) | B (80%< substrate protein remaining % ≤100%) | A (0% ≤ substrate protein remaining % ≤80%) | – |
| Cc1ccc(C2CCN(Cc3ccc4c(c3)CN(N3CCC(=O)NC3=O)C4=O)CC2)s1 [GT-07425, 1-(5-((4-(5-methylthiophen-2-yl)piperidin-1-yl)methyl)-1-oxoisoindolin-2-yl)dihydropyrimidine-2,4(1H,3H)-dione] | B (80%< substrate protein remaining % ≤100%) | B (80%< substrate protein remaining % ≤100%) | B (80%< substrate protein remaining % ≤100%) | 500 to 1000 nM | B (80%< substrate protein remaining % ≤100%) | B (80%< substrate protein remaining % ≤100%) | A (0% ≤ substrate protein remaining % ≤80%) | – |
